Measured values taken from patent US8415285B2, “Composition for the prevention or removal of insoluble salt deposits” (Ecover Coordination Center N.V., priority 2010, dated 2013).
Like-named read-outs stand apart in the source and are kept apart here.

Tests used:
[1] = labeling according to EU legislation; cited from earlier work
[2] = cited from earlier work
[3] = cited from earlier work; remark: listed apart in the source
[4] = Dissolution and pH development of lactide in water; type: physicochemical
Description: Slow-release lactide is commercially available from the company Galactic, Belgium.

[5] = Descaling efficiency upon prolonged contact, weight loss of immersed marble blocks (IPP protocol); conditions: Example 3, 5% solution
[6] = Descaling efficiency upon short exposure, weight loss of marble plates (IKW protocol); conditions: for Weight difference plates: Example 3, short contact; for Average weight loss (g), plates: Example 1, 5% active matter acid solution, 10 seconds immersion + 10 minutes, five plates; for Weight loss plates: Example 4, acid levels 0, 1.5 or 3, solutions prepared 20 hours prior
Protocol: SÖFW-journal, 120, Jahrgang 13:94) for their descaling efficiency upon short exposure.
For each product, five oven-dry marble plates (Carrara marble, 75×150×5 mm, bought at Van Houten Malle) are weighted on a high precision balance and subsequently completely immersed during 10 seconds in a glass beaker holding 950 milliliter of a 5% active matter acid solution. The plates are then removed from the liquor, and put in upright position for 10 minutes during which the acid is allowed for further action. […] The weight loss due to the exposure to the acid is used as a measure for its descaling performance.
(§1) Solutions were allowed to stand until complete dissolution of the lactide before the descaling test was started.
(§2) The required volumes for filling the beakers were prepared as 3% active matter solutions, 20 hours prior to the test.

[7] = Descaling efficiency upon prolonged contact, weight loss of immersed marble blocks (IPP protocol); conditions: for Average weight loss (g), blocks: Example 2, 24 hours immersion in the acid solution, duplicate; for Weight loss blocks: Example 4, acid levels 0, 1.5 or 3
Protocol: as §1, §2

[8] = footnote b: as % anhydrous at 25° C.; cited from earlier work

O=C(O)C(=O)O [oxalic]
label [1]: C, Xn

O=C(O)CCCC(=O)O [glutaric]
Solubility water 20° C. ([2]; pH 7, 20° C.): 50%
label [1]: Xi

O=C(O)CC(=O)O [malonic]
label [1]: Xn

NS(=O)(=O)O [sulfamic]
label [1]: C, Xn, N
pKa (first value) [3]: 0.1

CC(=O)O [Acetic]
label [1]: C, Xn

CC1OC(=O)C(C)OC1=O (stereo not drawn) [Lactide, 3,6-Dimethyl-1,4-dioxane-2,5-dione]
Time for complete dissolution ([4]; room temperature, while stirring): at least 3 hours
Solubility water 20° C. ([2]; pH 7, 20° C.): Insol.^a
label [1]: Xi
Weight difference blocks [5]: 6.0445 g
Weight difference plates ([6]; 3% solution): 0.1129 g
Weight difference plates ([6]; 5% solution): 0.1365 g
Weight difference blocks ([7]; Example 3, 3% solution, prolonged contact): 2.9844 g

O=C(O)CC(O)C(=O)O (stereo not drawn) [Malic acid]
Solubility calcium salt as % anhydrous at 25° C. [8]: 0.8%^b
Solubility water 20° C. ([2]; pH 7, 20° C.): >80%
label [1]: Xn
Average weight loss (g), plates [6]: 0.1457 g
Average weight loss (g), blocks [7]: 8.735 g

CC(O)C(=O)O (stereo not drawn) [Lactic acid]
label [1]: Xi
Average weight loss (g), plates [6]: 0.1278 g
Weight loss plates [6]: 0.09616 g
Average weight loss (g), blocks [7]: 9.06 g
Weight loss blocks ([7]; prolonged contact): 5.2176 g

O=C(O)[C@H](O)[C@@H](O)[C@H](O)[C@H](O)CO [gluconic]
Solubility water 20° C. ([2]; pH 7): >50%
label [1]: Xn

O=CO [formic]
label [1]: C, Xn

O=C(O)CCC(=O)O [Succinic acid]
label [1]: C, Xn
Weight difference blocks [5]: 7.2479 g
Average weight loss (g), plates [6]: 0.1376 g
Weight difference plates ([6]; 5% solution): 0.0899 g
Weight loss plates [6]: 0.08734 g
Average weight loss (g), blocks [7]: 9.304 g
Weight loss blocks ([7]; prolonged contact): 4.705 g

O=C(O)/C=C\C(=O)O [maleic]
Solubility water 20° C. ([2]; pH 7): >40%

O=C(O)/C=C/C(=O)O [fumaric]
Solubility water 20° C. ([2]; pH 7): 64%

O=C(O)CC(O)(CC(=O)O)C(=O)O [Citric acid]
Weight difference blocks [5]: 3.3186 g
Average weight loss (g), plates [6]: 0.105 g
Weight difference plates ([6]; 5% solution): 0.0782 g
Weight loss plates [6]: 0.05778 g
Average weight loss (g), blocks [7]: 3.8461 g
Weight loss blocks ([7]; prolonged contact): 2.2648 g

CC1OC(=O)C(C)OC1=O (stereo not drawn) [slow-release lactide]
pH of 0.1 w/v % solution after 5 minutes ([4]; demineralized water, 25° C., 5 minutes): 3.7
pH of 0.1 w/v % solution after 10 minutes ([4]; demineralized water, 25° C., 10 minutes): 3.2
pH of 0.1 w/v % solution after 120 minutes ([4]; demineralized water, 25° C., 120 minutes): 2.5

O=S(=O)(O)O [sulfuric]
label [1]: C, T

O=C(O)CO [Glycolic acid]
label [1]: C, Xn
Average weight loss (g), plates [6]: 0.1629 g
Weight loss plates [6]: 0.1115 g
Average weight loss (g), blocks [7]: 2.629 g
Weight loss blocks ([7]; prolonged contact): 4.2873 g
